Test results: ChEMBL document CHEMBL5537169, “Structure-Activity Relationships and Discovery of (S)-6-Isopropyl-2-methoxy-3-(3-methoxypropoxy)-10-oxo-5,10-dihydro-6H-pyrido[1,2-h][1,7]naphthyridine-9-carboxylic Acid (AB-452), a Novel Orally Available HBV RNA Destabilizer” (J Med Chem, 2024)

Assays:
Hepatitis B virus = assay: Antiviral activity against HBV infected in human HepG2.2.15 cells assessed as inhibition of HBsAg level incubated for 6 days by microplate-based chemiluminescence immunoassay; format: functional, organism-based; settings: HepG2 2.2.15, 144 h
HepG2 2.2.15 = assay: Cytotoxicity against human HepG2.2.15 cells by Cell-titer Glo luminescent assay; format: functional
[1] = Clearance in CD-1 mouse liver microsomes at 0.3 uM pre-incubated for 10 mins followed by NADPH addition incubated for 60 mins by LC-MS/MS analysis; format: ADME, Microsome; settings: time 70 min, read-out: CLH
[2] = Clearance in human liver microsomes at 0.3 uM pre-incubated for 10 mins followed by NADPH addition incubated for 60 mins by LC-MS/MS analysis; format: ADME, Microsome; settings: time 70 min, read-out: CLH
[3] = Cmax in CD-1 mouse at 10 mg/kg,po measured at 0.083 to 24 hrs post administration by LC-MS/MS analysis; format: ADME, organism-based; settings: in vivo, time 0.083-24 hrs
[4] = AUCinfinity in Sprague-Dawley rat at 2 mg/kg,iv measured at 0.083 to 24 hrs post administration by LC-MS/MS analysis; format: ADME, organism-based; settings: Sprague-Dawley, in vivo, time 0.083-24 hrs
[5] = Drug accumulation in Sprague-Dawley rat liver assessed as fold change in drug uptake at 10 mg/kg,po measured at 0.083 to 24 hrs post administration by LC-MS/MS analysis; format: ADME, organism-based; settings: in vivo, time 0.083-24 hrs
[6] = Half life in Sprague-Dawley rat at 2 mg/kg,iv measured at 0.083 to 24 hrs post administration by LC-MS/MS analysis; format: ADME, organism-based; settings: in vivo, time 0.083-24 hrs
[7] = AUCinfinity in CD-1 mouse at 10 mg/kg,po measured at 0.083 to 24 hrs post administration by LC-MS/MS analysis; format: ADME, organism-based; settings: in vivo, time 0.083-24 hrs
[8] = Half life in Sprague-Dawley rat at 10 mg/kg,po measured at 0.083 to 24 hrs post administration by LC-MS/MS analysis; format: ADME, organism-based; settings: in vivo, time 0.083-24 hrs
[9] = Clearance in Sprague-Dawley rat at 2 mg/kg,iv measured at 0.083 to 24 hrs post administration by LC-MS/MS analysis; format: ADME, organism-based; settings: in vivo, time 0.083-24 hrs
[10] = Oral bioavailability in Sprague-Dawley rat at 10 mg/kg measured at 0.083 to 24 hrs by LC-MS/MS analysis; format: ADME, organism-based; settings: in vivo, time 0.083-24 hrs
[11] = AUCinfinity in CD-1 mouse at 2 mg/kg,iv measured at 0.083 to 24 hrs post administration by LC-MS/MS analysis; format: ADME, organism-based; settings: in vivo, time 0.083-24 hrs
[12] = Drug accumulation in CD-1 mouse liver assessed as fold change in drug uptake at 10 mg/kg,po measured at 0.083 to 24 hrs post administration by LC-MS/MS analysis; format: ADME, organism-based; settings: in vivo, time 0.083-24 hrs
[13] = Apparent volume of distribution at steady state in CD-1 mouse at 2 mg/kg,iv measured at 0.083 to 24 hrs post administration by LC-MS/MS analysis; format: ADME, organism-based; settings: in vivo, time 0.083-24 hrs, read-out: Vdss(app)
[14] = Drug accumulation in Sprague-Dawley rat plasma assessed as fold change in drug uptake at 10 mg/kg,po measured at 0.083 to 24 hrs post administration by LC-MS/MS analysis; format: ADME, organism-based; settings: in vivo, time 0.083-24 hrs
[15] = Apparent volume of distribution at steady state in Sprague-Dawley rat at 2 mg/kg,iv measured at 0.083 to 24 hrs post administration by LC-MS/MS analysis; format: ADME, organism-based; settings: in vivo, time 0.083-24 hrs, read-out: Vdss(app)
[16] = Half life in CD-1 mouse at 2 mg/kg,iv measured at 0.083 to 24 hrs post administration by LC-MS/MS analysis; format: ADME, organism-based; settings: in vivo, time 0.083-24 hrs
[17] = Oral bioavailability in CD-1 mouse at 10 mg/kg measured at 0.083 to 24 hrs by LC-MS/MS analysis; format: ADME, organism-based; settings: in vivo, time 0.083-24 hrs
[18] = Half life in CD-1 mouse at 10 mg/kg,po measured at 0.083 to 24 hrs post administration by LC-MS/MS analysis; format: ADME, organism-based; settings: in vivo, time 0.083-24 hrs
[19] = AUCinfinity in Sprague-Dawley rat at 10 mg/kg,po measured at 0.083 to 24 hrs post administration by LC-MS/MS analysis; format: ADME, organism-based; settings: in vivo, time 0.083-24 hrs
[20] = Drug accumulation in CD-1 mouse plasma assessed as fold change in drug uptake at 10 mg/kg,po measured at 0.083 to 24 hrs post administration by LC-MS/MS analysis; format: ADME, organism-based; settings: in vivo, time 0.083-24 hrs
[21] = Clearance in CD-1 mouse at 2 mg/kg,iv measured at 0.083 to 24 hrs post administration by LC-MS/MS analysis; format: ADME, organism-based; settings: in vivo, time 0.083-24 hrs
[22] = Cmax in Sprague-Dawley rat at 2 mg/kg,iv measured at 0.083 to 24 hrs post administration by LC-MS/MS analysis; format: ADME, organism-based; settings: in vivo, time 0.083-24 hrs
[23] = Cmax in Sprague-Dawley rat at 10 mg/kg,po measured at 0.083 to 24 hrs post administration by LC-MS/MS analysis; format: ADME, organism-based; settings: in vivo, time 0.083-24 hrs
[24] = Cmax in CD-1 mouse at 2 mg/kg,iv measured at 0.083 to 24 hrs post administration by LC-MS/MS analysis; format: ADME, organism-based; settings: in vivo, time 0.083-24 hrs
[25] = Apparent volume of distribution at steady state in CD-1 mouse at 10 mg/kg,po measured at 0.083 to 24 hrs post administration by LC-MS/MS analysis; format: ADME, organism-based; settings: in vivo, time 0.083-24 hrs
[26] = Drug accumulation in CD-1 mouse liver at 10 mg/kg,po measured at 0.083 to 24 hrs post administration by LC-MS/MS analysis; format: ADME, organism-based; settings: in vivo, time 0.083-24 hrs
[27] = Apparent volume of distribution at steady state in Sprague-Dawley rat at 10 mg/kg,po measured at 0.083 to 24 hrs post administration by LC-MS/MS analysis; format: ADME, organism-based; settings: in vivo, time 0.083-24 hrs
[28] = Tmax in CD-1 mouse at 10 mg/kg,po measured at 0.083 to 24 hrs post administration by LC-MS/MS analysis; format: ADME, organism-based; settings: in vivo, time 0.083-24 hrs
[29] = Tmax in Sprague-Dawley rat at 10 mg/kg,po measured at 0.083 to 24 hrs post administration by LC-MS/MS analysis; format: ADME, organism-based; settings: in vivo, po, 10 mg/kg, time 0.083-24 hrs
[30] = Drug accumulation in Sprague-Dawley rat liver at 10 mg/kg,po measured at 0.083 to 24 hrs post administration by LC-MS/MS analysis; format: ADME, organism-based; settings: in vivo, time 0.083-24 hrs

COc1cc2c(nc1OC)-c1cc(=O)c(C(=O)O)cn1C(C(C)C)C2 (stereo not given)
EC50 (Hepatitis B virus): 14 nM | CC50 (HepG2 2.2.15): > 50 µM

COc1cccc(Cn2cc(C(C)C)n3cc(C(=O)O)c(=O)cc3c2=O)c1
EC50 (Hepatitis B virus): 5000 nM

COCCCOc1cc2c([nH]c1=O)-c1cc(=O)c(C(=O)O)cn1[C@H](C(C)C)C2
EC50 (Hepatitis B virus): 450 nM | CC50 (HepG2 2.2.15): > 50 µM

COc1nc2c(s1)CC(C(C)C)n1cc(C(=O)O)c(=O)cc1-2 (stereo not given)
EC50 (Hepatitis B virus): 3800 nM | CC50 (HepG2 2.2.15): > 50 µM

COCc1nc2c(s1)CC(C(C)C)n1cc(C(=O)O)c(=O)cc1-2 (stereo not given)
EC50 (Hepatitis B virus): 3000 nM | CC50 (HepG2 2.2.15): > 50 µM

COc1cc2c(cc1Cl)-c1cc(=O)c(C(=O)O)cn1[C@H](C(C)C)CO2
microsomal CLint at 0.3 µM [1]: 1 µL/min/mg | EC50 (Hepatitis B virus): 38 nM | CC50 (HepG2 2.2.15): > 50 µM

COc1cc2c(nc1OC)-c1cc(=O)c(C(=O)O)cn1[C@@H](C(C)C)C2
EC50 (Hepatitis B virus): 300 nM | CC50 (HepG2 2.2.15): > 50 µM

COCCCOc1cc2c(nc1OC)-c1cc(=O)c(C(=O)O)cn1[C@@H](C(C)C)C2
EC50 (Hepatitis B virus): 950 nM | CC50 (HepG2 2.2.15): > 50 µM

CC(C)[C@@H]1COc2cc(OCCCN3CCOCC3)c(Cl)cc2-c2cc(=O)c(C(=O)O)cn21
microsomal CLint at 0.3 µM [1]: 1 µL/min/mg | EC50 (Hepatitis B virus): 140 nM | CC50 (HepG2 2.2.15): > 50 µM

CC(C)[C@@H]1COc2cc(OCCCO)c(Cl)cc2-c2cc(=O)c(C(=O)O)cn21
microsomal CLint at 0.3 µM [2]: 4 µL/min/mg | microsomal CLint at 0.3 µM [1]: 6 µL/min/mg | EC50 (Hepatitis B virus): 19 nM | CC50 (HepG2 2.2.15): > 50 µM

COCCOc1cc2c(cc1Cl)-c1cc(=O)c(C(=O)O)cn1[C@H](C(C)C)CO2
EC50 (Hepatitis B virus): 53 nM | CC50 (HepG2 2.2.15): > 50 µM

COCCCOc1cc2c(nc1OC)-c1cc(=O)c(C(=O)O)cn1[C@](C)(C(C)C)C2
Cmax [3]: 639 ng/mL | AUC(0-inf) [4]: 1570 ng·h/mL | fold change (FC) [5]: 15 | half-life [6]: 264 min | AUC(0-inf) [7]: 4160 ng·h/mL | half-life ([8]; Sprague-Dawley): 264 min | clearance [9]: 22 mL/min/kg | bioavailability ([10]; Sprague-Dawley): 82% | AUC(0-inf) [11]: 615 ng·h/mL | fold change (FC) [12]: 1 | Vd [13]: 4 L/kg | fold change (FC) [14]: 2.7 | Vd [15]: 2.7 L/kg | half-life [16]: 90 min | bioavailability [17]: 136% | EC50 (Hepatitis B virus): 8 nM | half-life [18]: 270 min | AUC(0-inf) ([19]; Sprague-Dawley): 6480 ng·h/mL | fold change (FC) [20]: 0.1 | CC50 (HepG2 2.2.15): > 50 µM | clearance [21]: 55 mL/min/kg | Cmax [22]: 1590 ng/mL | Cmax ([23]; Sprague-Dawley, read-out: Cmax): 965 ng/mL | Cmax [24]: 470 ng/mL

CCC1(C(C)C)Cc2cc(OCCCOC)c(OC)nc2-c2cc(=O)c(C(=O)O)cn21 (stereo not given)
EC50 (Hepatitis B virus): 6 nM | CC50 (HepG2 2.2.15): > 50 µM

CC(C)[C@@H]1COc2cc(OCC(C)(C)CO)c(Cl)cc2-c2cc(=O)c(C(=O)O)cn21
microsomal CLint at 0.3 µM [1]: 17 µL/min/mg | EC50 (Hepatitis B virus): 12 nM | CC50 (HepG2 2.2.15): > 50 µM

COCCOc1cc2c(cc1Cl)-c1cc(=O)c(C(=O)O)cn1[C@@H](C(C)C)CO2
EC50 (Hepatitis B virus): 780 nM | CC50 (HepG2 2.2.15): > 50 µM

CCc1cc2c(cc1OCCCOC)OC[C@@H](C(C)C)n1cc(C(=O)O)c(=O)cc1-2
Cmax [3]: 844 ng/mL | AUC(0-inf) [7]: 7080 ng·h/mL | t1/2 ([8]; po, 10 mg/kg): 2.7 h | F ([10]; po, 10 mg/kg): 24% | Vdss(app) [25]: 1.1 L/kg | Ct [26]: 5 ng/g | bioavailability [17]: 91% | Vdss(app) [27]: 0.9 L/kg | Tmax [28]: 2.4 h | Tmax [29]: 3.3 h | microsomal CLint at 0.3 µM [1]: 10 µL/min/mg | EC50 (Hepatitis B virus): 6 nM | half-life [18]: 48 min | AUC ([19]; po, 10 mg/kg): 2860 ng·h/mL | CC50 (HepG2 2.2.15): 33 µM | Ct [30]: 47 ng/g | clearance [21]: 21 mL/min/kg | Cmax ([23]; po, 10 mg/kg): 351 ng/mL

COc1ccc(-c2cc(=O)c(C(=O)O)cn2CC(C)(C)C)cc1OC
EC50 (Hepatitis B virus): 10000 nM
